Values joined by “and” are separate entries in the source; they are usually repeats but may differ in a detail not shown here. Identical values can stand only once. Square brackets hold non-standard residues; d marks the D form. Peptide text beside a SMILES is read from it. * marks the point of attachment. Sta = CC(C)C[C@H](N)[C@@H](O)CC(=O)O; Isovaleryl = CC(C)CC(=O)*
Key:
HIV-1 = conditions: single dose; cited from earlier work
HIV = conditions: cited from earlier work
[1] = test system: p55 Processing in vVk-1 infected CV-1 Cells; experiment: CV-1 Cell Assay: inhibition of p55 processing in vVK-1 infected CV-1 cells (p24 levels); format: cell-based; conditions: Cercopithecidae, CV-1, read-out: CV-1 Cell Assay % Inhib
Procedure: Inhibition of p55 Processing in vVk-1 infected CV-1 Cells. CV-1 cells are seeded at 2×10^5 cells per well in 24-well Costar dishes and infected 4 to 6 hours later with vVK-1 at 5 plaque-forming units (PFU) per cell. Each compound is dissolved in Dulbecco's Modified Eagles medium (DMEM) containing 2.5% fetal bovine serum and is added to duplicate wells at the indicated final concentration 2 hours after virus addition. After 24 hours, the culture medium is removed and the monolayer washed with 1 mL of phosphate buffered saline (PBS), and the cells lysed by the addition of 0.1 mL of loading buffer (62.5 mM Tris (hydroxymethyl) aminomethane (Tris), pH 6.8, 2.3% sodium dodecyl sulfate (SDS), 5% β-mercaptoethanol, and 10% glycerol). The cell lysates are collected individually, placed in boiling water for 3 minutes, and then 0.025 mL of each sample is subjected to electrophoresis on 12% SDS-polyacrylamide gels. The proteins are electroblotted onto nitrocellulose and analyzed by protein immunoblotting. The primary antibodies are sheep antibody to p24 (International Enzyme, Inc., Fallbrook, Calif.) and the secondary antibody is alkaline-phosphatase-conjugated rabbit antibody to sheep immunoglobulin G (Kirkegaard & Perry Laboratories, Gaithersburg, Md.). The levels of immunoreactive proteins are quantified by densitometry (Bio-Rad, Model 260) with the accompanying 1-D Analyst Software. Inhibition refers to the mean percent decrease in p24 levels determined from the duplicate drug-treated samples compared to the nondrug-treated controls. […] Val-Ile-Amp (also known as N-[1-(cyclohexylmethyl)-2,3-dihydroxy-5-methyl-4-[[[2-methyl-1-[[(2-pyridinylmethyl)amino]carbonyl]butyl]-amino]carbonyl]hexyl]-α-[[(1-naphthalenyloxy)acetyl]amino]-, [1S-[1R*(R*),2S*,3S*,4S*(1R*,2R*)]]-1H-imidazole-4-propanamide) (which was disclosed in International Publication Number WO 87/05302, published 11 Sep. 1987) was also determined in each experiment.

HIV-1 protease [2] = target: T1, HIV-1 protease (Human immunodeficiency virus type 1 group M subtype B, UniProt P04585); experiment: biochemical; conditions: for IC50: HIV-1 Protease IC50; for inhibition at 0.098 µM: read-out: HIV-1 Protease % Inhib, dose 0.098 uM; for inhibition at 0.78 µM: read-out: HIV-1 Protease % Inhib, dose 0.780 uM; for inhibition at 1.56 µM: read-out: HIV-1 Protease % Inhib, dose 1.560 uM; for inhibition at 12.5 µM: read-out: HIV-1 Protease % Inhib, dose 12.500 uM; for inhibition at 25 µM: read-out: HIV-1 Protease % Inhib, dose 25.000 uM; for inhibition at 50 µM: read-out: HIV-1 Protease % Inhib, dose 50.000 uM; for inhibition at 100 µM: read-out: HIV-1 Protease % Inhib, dose 100.000 uM; for inhibition at 0.37 µM: read-out: HIV-1 Protease % Inhib, dose 0.370 uM; for inhibition at 1.1 µM: read-out: HIV-1 Protease % Inhib, dose 1.100 uM; for inhibition at 30 µM: read-out: HIV-1 Protease % Inhib, dose 30.000 uM
Outline: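 Biotinylated, FITC-labeled peptide substrate (20 μl of 0.2 μM) incubated with HIV-1 protease (10 μl of 0.1 μM) and compound in 0.1 M sodium acetate pH 5.5, 1.0 M NaCl, 0.05% NP-40, 1 h, room temperature, dark. Streptavidin beads then capture uncleaved substrate; filtered labeled product read by fluorescence, giving percent inhibition.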

HIV-1IIIB = experiment: inhibition of retroviral replication in HIV-1IIIB infected human T-cell lines (MT4 and H9); format: cell-based; conditions: e.g.
Procedure: Several compounds of the present invention, such as N-[3-[cyclopropyl(5,6,7,8,9,10-hexahydro-4-hydroxy-2-oxo-2H-cycloocta[b]pyran-3-yl)methyl]phenyl]-4-fluorobenzenesulfonamide and 4-cyano-N-[3-[cyclopropyl(5,6,7,8,9,10-hexahydro-4-hydroxy-2-oxo-2H-cycloocta[b]pyran-3-yl)methyl]phenyl]-benzenesulfonamide were tested in known human cell lines, such as human T-cell lines, e.g., MT4 and H9, which were infected with HIV-1IIIB, and certain of these compounds were further tested in peripheral blood mononuclear cells (PBMC), which were infected with HIV-1JRCSF (a clinical isolate).

HIV-1 protease [3] = target: T1, HIV-1 protease; experiment: biochemical; conditions: read-out: HIV-1 FITC KI
Outline: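 Ki from two-fold serial inhibitor dilutions (24–48 concentrations) with 40 nM HIV-1 protease stock and 200 μM substrate stock, 90 min at room temperature; stopped with avidin beads. Reference inhibitor run in parallel; Ki by nonlinear least-squares fit.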

HIV protease = conditions: cited from earlier work

O=c1cc(O)c2ccccc2o1 [4-hydroxy-coumarin]
effect on HIV-1 replication and viral transmission (HIV-1): inhibitory effect

Cc1cn([C@H]2C[C@H](N=[N+]=[N-])[C@@H](CO)O2)c(=O)[nH]c1=O [AZT, 3'-azido-3'-deoxy-thymidine]
clinical effect in HIV infection/AIDS (HIV; humans): decrease the mortality and frequency of opportunistic infections associated with AIDS

CCCC(c1ccccc1)c1c(O)c2ccccc2oc1=O (centres unmarked) [Example 10, 4-Hydroxy-3-(1-phenylbutyl)-coumarin]
inhibition at 100 µM [1]: 0% | inhibition at 300 µM [1]: 57% | IC50 (HIV-1 protease [2]): 1710 nM | inhibition at 0.098 µM (HIV-1 protease [2]): < 10% | inhibition at 0.196 µM (HIV-1 protease [2]; read-out: HIV-1 Protease % Inhib, dose 0.196 uM): < 10% | inhibition at 0.78 µM (HIV-1 protease [2]): 33.2% | inhibition at 1.56 µM (HIV-1 protease [2]): 53.6% | inhibition at 12.5 µM (HIV-1 protease [2]): 91.5% | inhibition at 25 µM (HIV-1 protease [2]): 88% | inhibition at 50 µM (HIV-1 protease [2]): 102% | inhibition at 100 µM (HIV-1 protease [2]): 109%

CCCCC(c1ccccc1)c1c(O)c2ccccc2oc1=O (centres unmarked) [Example 11, 4-Hydroxy-3-(1-phenylpentyl)-coumarin]
inhibition at 100 µM [1]: 64% | inhibition at 300 µM [1]: 78% | IC50 (HIV-1 protease [2]): 1890 nM | inhibition at 0.098 µM (HIV-1 protease [2]): < 10% | inhibition at 0.195 µM (HIV-1 protease [2]; read-out: HIV-1 Protease % Inhib, dose 0.195 uM): < 10% | inhibition at 0.39 µM (HIV-1 protease [2]; read-out: HIV-1 Protease % Inhib, dose 0.390 uM): 19.2% | inhibition at 0.78 µM (HIV-1 protease [2]): 27.1% | inhibition at 1.56 µM (HIV-1 protease [2]): 58.1% | inhibition at 3.13 µM (HIV-1 protease [2]; read-out: HIV-1 Protease % Inhib, dose 3.130 uM): 63.1% | inhibition at 6.25 µM (HIV-1 protease [2]; read-out: HIV-1 Protease % Inhib, dose 6.250 uM): 70.4% | inhibition at 12.5 µM (HIV-1 protease [2]): 82% | inhibition at 25 µM (HIV-1 protease [2]): 95.8% | inhibition at 50 µM (HIV-1 protease [2]): 90.7% | inhibition at 100 µM (HIV-1 protease [2]): 105% | inhibition at 200 µM (HIV-1 protease [2]; read-out: HIV-1 Protease % Inhib, dose 200.000 uM): 107%

N#Cc1ccc(S(=O)(=O)Nc2cccc(C(c3c(O)c4c(oc3=O)CCCCCC4)C3CC3)c2)cc1 (centres unmarked) [Example 262, 4-Cyano-N-[3-[cyclopropyl(5,6,7,8,9,10-hexahydro-4-hydroxy-2-oxo-2H-cycloocta[b]pyran-3-yl)methyl]phenyl]-benzenesulfonamide]
inhibition of retroviral replication (HIV-1IIIB): found to inhibit retrovital replication | Ki (HIV-1 protease [3]): 1.4 nM and 0.44 nM and 1.01 nM and 0.6 nM | HIV-1 Protease % Inhib (HIV-1 protease [2]; dose 0.123 uM): 83.32% | HIV-1 Protease % Inhib (HIV-1 protease [2]; dose 3.300 uM): 121.87% | HIV-1 Protease % Inhib (HIV-1 protease [2]; dose 10.000 uM): 119.5% | inhibition at 0.37 µM (HIV-1 protease [2]): 103% | inhibition at 1.1 µM (HIV-1 protease [2]): 113% | inhibition at 30 µM (HIV-1 protease [2]): 115%

O=c1oc2c(c(O)c1C(c1cccc(NS(=O)(=O)c3ccc(F)cc3)c1)C1CC1)CCCCCC2 (centres unmarked) [Example 268, N-[3-[Cyclopropyl(5,6,7,8,9,10-hexahydro-4-hydroxy-2-oxo-2H-cycloocta[b]pyran-3-yl)methyl]phenyl]-4-fluoro-benzenesulfonamide]
inhibition of retroviral replication (HIV-1IIIB): found to inhibit retrovital replication | inhibition at 0.123 µM (HIV-1 protease [2]; read-out: HIV-1 Protease % Inhib, dose 0.123 uM): 71.2% | inhibition at 0.37 µM (HIV-1 protease [2]): 88% | inhibition at 1.1 µM (HIV-1 protease [2]): 96.2% | inhibition at 3.3 µM (HIV-1 protease [2]; read-out: HIV-1 Protease % Inhib, dose 3.300 uM): 97.6% | inhibition at 10 µM (HIV-1 protease [2]; read-out: HIV-1 Protease % Inhib, dose 10.000 uM): 101% | inhibition at 30 µM (HIV-1 protease [2]): 101%

CC(C)CC(=O)N[C@H](C(=O)N[C@H](C(=O)N[C@@H](CC(C)C)[C@@H](O)CC(=O)N[C@@H](C)C(=O)N[C@@H](CC(C)C)[C@@H](O)CC(=O)O)C(C)C)C(C)C [Pepstatin A] (Isovaleryl-VV[Sta]A[Sta]-OH)
HIV protease inhibition (HIV protease): inhibitor of HIV-I protease

Nc1ccn([C@H]2CC[C@@H](CO)O2)c(=O)n1 [ddC]
limiting toxicity (HIV; humans): peripheral neuropathy which is reversible at low doses

O=c1[nH]cnc2c1ncn2[C@H]1CC[C@@H](CO)O1 [ddI]
effect on liver (HIV; human, in vivo): stimulate hepatic glycolysis leading to irreversible liver damage | limiting toxicity (HIV; humans): peripheral neuropathy and pancreatitis

O=c1ccc2ccc(O)cc2o1 [umbelliferone]
effect on HIV-1 replication and viral transmission (HIV-1): inhibitory effect

CC(=O)CC(c1ccccc1)c1c(O)c2ccccc2oc1=O (stereo not drawn) [warfarin, 3-α-phenyl-β-acetylethyl-4-hydroxycoumarin]
HIV protease inhibition (HIV protease): displayed HIV protease inhibition | effect on HIV-1 replication and viral transmission (HIV-1): inhibitory effect
